Patent US11484539B2, “Compounds and their uses for alleviating menopause-associated symptoms” (Estetra SPRL, priority 2018, dated 2022)

Test system: post-menopausal women
Assay: Menopause Rating Scale (MRS), total MRS score
Assay type: in vivo
Parameters: key: 0 = asymptomatic, 44 = highest degree of complaints
Excerpt: As used herein, the terms “Quality of Life” (and the abbreviation “QoL”) refers to a parameter which can be assessed, for example, by using questionnaires, such as, by way of example and not limitation, the “Menopause Rating Scale” questionnaire (Heinemann et al., 2003, “International versions of the Menopause Rating Scale (MRS)” Health Qual Life Outcomes 1: 28; Heinemann et al., 2004, “The Menopause Rating Scale (MRS) scale: A methodological review”. Health Qual Life Outcomes 2: 45; Heinemann et al., 2004, “The Menopause Rating Scale (MRS) as outcome measure for hormone treatment? A validation study”. Health Qual Life Outcomes 2:67; as further detailed below in Example 1 Section C.) or the MENQOL questionnaire (The Menopause-specific Quality of Life (MENQOL) questionnaire, Hilditch et al.; Maturitas 1996; A menopause-specific quality of life questionnaire: development and psychometric properties; 24(3); p. 161-175).
The Menopause Rating Scale (MRS) is a health-related quality of life scale allowing the measure of severity of age-/menopause-related complaints by rating a profile of symptoms (Heinemann et al., 2003, “International versions of the Menopause Rating Scale (MRS)” Health Qual Life Outcomes 1: 28; Heinemann et al., 2004, “The Menopause Rating Scale (MRS) scale: A methodological review”. Health Qual Life Outcomes 2: 45; Heinemann et al., 2004, “The Menopause Rating Scale (MRS) as outcome measure for hormone treatment? A validation study”. Health Qual Life Outcomes 2:67).
The score increases point by point with increasing severity of subjectively perceived complaints in each one of 11 items (severity expressed in 0 to 4 points in each item). By checking these 5 possible boxes of “severity” for each of the items in the questionnaire, the respondent provides their personal perception. The total MRS score ranges between 0 (asymptomatic) to 44 (highest degree of complaints). The minimal/maximal scores vary between three dimensions depending on the number of complaints allocated to the respective dimension of symptoms (Heinemann et al., 2003, Health Qual Life Outcomes 1: 28): • 1. psychological symptoms: 0 to 16 scoring points (4 symptoms: depressed, irritable, anxious, exhausted); • 2. somato-vegetative symptoms: 0 to 16 points (4 symptoms: sweating/flush, cardiac complaints, sleeping disorders, joint & muscle complaints); • 3. urogenital symptoms: 0 to 12 points (3 symptoms: sexual problems, urinary complaints, vaginal dryness).

## C[C@]12CC[C@@H]3c4ccc(O)cc4CC[C@H]3[C@@H]1[C@@H](O)[C@@H](O)[C@@H]2O [E4, 1,3,5 (10)-estratrien-3,15alpha,16alpha,17beta-tetrol]
2.5 mg, Baseline
  Total MRS Score, Mean: 16.5
2.5 mg, Week 12
  Total MRS Score, Mean: 9.5
2.5 mg, week 4
  Total MRS Score, Mean: 10.3
5 mg, Baseline
  Total MRS Score, Mean: 16.5
5 mg, Week 12
  Total MRS Score, Mean: 11.0
5 mg, week 4
  Total MRS Score, Mean: 10.5
10 mg, Baseline
  Total MRS Score, Mean: 17.6
10 mg, Week 12
  Total MRS Score, Mean: 9.7
10 mg, week 4
  Total MRS Score, Mean: 11.7
15 mg, Baseline
  Total MRS Score, Mean: 16.4
15 mg, Week 12
  Total MRS Score, Mean: 8.1
15 mg, week 4
  Total MRS Score, Mean: 8.7
